Test results reported in ChEMBL document CHEMBL4725338, “Discovery of novel histone lysine methyltransferase G9a/GLP (EHMT2/1) inhibitors: Design, synthesis, and structure-activity relationships of 2,4-diamino-6-methylpyrimidines” (Bioorg Med Chem Lett, 2020).
Values after ≈ are worked out from the molar mass of the structure shown. Active and inactive are the calls of the source. The rule behind the calls is not given here.

Legend:
[1] = biological target: T1, Histone-lysine N-methyltransferase EHMT1 (Homo sapiens, UniProt Q9H9B1); experiment: Inhibition of GLP (unknown origin)
T1 sequence (Q9H9B1 whole entry): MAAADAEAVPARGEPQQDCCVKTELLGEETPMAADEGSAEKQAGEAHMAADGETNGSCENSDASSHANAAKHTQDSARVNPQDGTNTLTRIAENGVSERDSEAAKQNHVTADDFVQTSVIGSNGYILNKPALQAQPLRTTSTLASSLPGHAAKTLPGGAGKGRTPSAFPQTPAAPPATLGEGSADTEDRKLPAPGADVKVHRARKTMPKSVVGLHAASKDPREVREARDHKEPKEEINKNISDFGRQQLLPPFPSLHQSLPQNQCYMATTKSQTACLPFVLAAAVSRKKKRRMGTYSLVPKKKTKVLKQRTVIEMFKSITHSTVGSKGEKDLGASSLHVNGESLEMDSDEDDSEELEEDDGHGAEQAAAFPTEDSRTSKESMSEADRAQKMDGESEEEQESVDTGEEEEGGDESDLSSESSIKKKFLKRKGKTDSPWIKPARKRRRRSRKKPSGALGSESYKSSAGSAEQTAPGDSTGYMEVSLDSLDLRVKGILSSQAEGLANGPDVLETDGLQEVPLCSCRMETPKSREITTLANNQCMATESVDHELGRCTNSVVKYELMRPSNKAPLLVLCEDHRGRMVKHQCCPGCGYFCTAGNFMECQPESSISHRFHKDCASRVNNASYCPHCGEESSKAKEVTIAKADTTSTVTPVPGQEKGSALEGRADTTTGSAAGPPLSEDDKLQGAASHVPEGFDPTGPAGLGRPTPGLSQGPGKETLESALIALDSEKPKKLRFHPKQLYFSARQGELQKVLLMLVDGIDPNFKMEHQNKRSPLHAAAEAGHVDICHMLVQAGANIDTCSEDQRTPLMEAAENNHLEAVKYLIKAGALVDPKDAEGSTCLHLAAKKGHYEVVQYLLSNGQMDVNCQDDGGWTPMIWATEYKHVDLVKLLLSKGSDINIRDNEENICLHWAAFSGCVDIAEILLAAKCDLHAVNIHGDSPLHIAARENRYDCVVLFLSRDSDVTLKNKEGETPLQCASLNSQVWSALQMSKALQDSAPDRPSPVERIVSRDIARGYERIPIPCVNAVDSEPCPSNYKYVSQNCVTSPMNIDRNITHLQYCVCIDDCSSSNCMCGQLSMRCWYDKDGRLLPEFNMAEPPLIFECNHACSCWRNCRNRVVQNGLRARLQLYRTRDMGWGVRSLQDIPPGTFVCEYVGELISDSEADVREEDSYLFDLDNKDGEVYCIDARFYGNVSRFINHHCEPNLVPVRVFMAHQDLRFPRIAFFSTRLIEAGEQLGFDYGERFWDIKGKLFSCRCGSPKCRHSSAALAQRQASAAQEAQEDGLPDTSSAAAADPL

[2] = test system: CD34-positive (myeloid/lymphoid) cell; experiment: Induction of fetal globin in human CD34+ cells assessed as switching of mRAN expression from adult beta-globin to fetal type gamma globin at 0.3 to 1 uM by qRT-PCR analysis; type: functional, cell-based
[3] = Lipophilicity, log D of compound; type: physicochemical; conditions: octanol/water
[4] = Apparent permeability in MDCK cells; type: ADME, cell-based, Canis lupus familiaris; conditions: dog
[5] = Aqueous solubility of the compound in pH 1.2 JP1 fluid; type: physicochemical
[6] = Metabolic stability in monkey liver microsomes assessed as compound remaining at 0.5 mg/mL incubated for 0.5 hrs; type: ADME, Macaca mulatta, Microsome; conditions: rhesus monkey, read-out: Stabilty
[7] = biological target: T2, CYP1A2 (Homo sapiens, UniProt P05177); experiment: Inhibition of CYP1A2 (unknown origin) at 10 uM relative to control; type: ADME
T2 sequence (P05177 whole entry): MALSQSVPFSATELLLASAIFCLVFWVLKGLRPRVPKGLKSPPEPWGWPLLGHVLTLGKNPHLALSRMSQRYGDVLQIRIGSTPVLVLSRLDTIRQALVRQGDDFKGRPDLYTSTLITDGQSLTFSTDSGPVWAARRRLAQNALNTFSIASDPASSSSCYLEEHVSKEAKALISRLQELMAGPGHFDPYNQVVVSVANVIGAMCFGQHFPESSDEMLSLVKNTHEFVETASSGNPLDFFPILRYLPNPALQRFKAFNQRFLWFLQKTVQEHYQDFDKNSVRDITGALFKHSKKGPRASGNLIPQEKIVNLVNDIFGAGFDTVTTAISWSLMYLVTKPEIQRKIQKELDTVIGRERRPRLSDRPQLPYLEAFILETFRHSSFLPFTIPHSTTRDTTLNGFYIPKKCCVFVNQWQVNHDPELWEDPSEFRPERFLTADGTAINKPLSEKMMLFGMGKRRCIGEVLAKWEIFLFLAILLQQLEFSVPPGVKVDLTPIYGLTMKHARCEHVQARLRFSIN

[8] = biological target: CYP2D6 (Homo sapiens, UniProt P10635); experiment: Inhibition of CYP2D6 (unknown origin) at 10 uM relative to control; type: ADME
[9] = biological target: CYP3A4 (Homo sapiens, UniProt P08684); experiment: Inhibition of CYP3A4 (unknown origin) at 10 uM relative to control; type: ADME
[10] = AUC (0 to infinity) in mouse at 10 mg/kg, po; type: ADME, organism-based; set-up: time infinity, route oral, dose 10 mg/kg; conditions: in vivo
[11] = Oral bioavailability in mouse at 10 mg/kg; type: ADME, organism-based; conditions: in vivo
[12] = Initial plasma concentration in mouse at 1 mg/kg, iv; type: ADME, organism-based
[13] = Half-life in mouse at 1 mg/kg, iv; type: ADME, organism-based; conditions: in vivo
[14] = Volume of distribution at steady state in mouse at 1 mg/kg, iv; type: ADME, organism-based; conditions: in vivo, read-out: Vdss
[15] = Intrinsic clearance in mouse at 1 mg/kg, iv; type: ADME, organism-based; conditions: in vivo

Chain of CYP3A4 (P08684 whole entry): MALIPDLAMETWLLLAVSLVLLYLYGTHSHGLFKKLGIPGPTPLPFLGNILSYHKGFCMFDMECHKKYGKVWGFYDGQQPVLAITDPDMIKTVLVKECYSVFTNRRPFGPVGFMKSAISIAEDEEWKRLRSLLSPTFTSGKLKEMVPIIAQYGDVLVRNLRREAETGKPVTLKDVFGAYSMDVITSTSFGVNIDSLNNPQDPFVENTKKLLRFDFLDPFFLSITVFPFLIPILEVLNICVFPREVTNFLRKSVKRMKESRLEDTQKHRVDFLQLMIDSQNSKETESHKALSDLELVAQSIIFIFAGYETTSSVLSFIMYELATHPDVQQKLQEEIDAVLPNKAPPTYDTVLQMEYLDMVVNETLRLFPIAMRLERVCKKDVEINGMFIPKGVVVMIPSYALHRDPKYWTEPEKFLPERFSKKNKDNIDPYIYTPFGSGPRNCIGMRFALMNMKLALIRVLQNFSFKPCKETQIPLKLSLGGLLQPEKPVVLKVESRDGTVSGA
Chain of CYP2D6 (P10635 whole entry): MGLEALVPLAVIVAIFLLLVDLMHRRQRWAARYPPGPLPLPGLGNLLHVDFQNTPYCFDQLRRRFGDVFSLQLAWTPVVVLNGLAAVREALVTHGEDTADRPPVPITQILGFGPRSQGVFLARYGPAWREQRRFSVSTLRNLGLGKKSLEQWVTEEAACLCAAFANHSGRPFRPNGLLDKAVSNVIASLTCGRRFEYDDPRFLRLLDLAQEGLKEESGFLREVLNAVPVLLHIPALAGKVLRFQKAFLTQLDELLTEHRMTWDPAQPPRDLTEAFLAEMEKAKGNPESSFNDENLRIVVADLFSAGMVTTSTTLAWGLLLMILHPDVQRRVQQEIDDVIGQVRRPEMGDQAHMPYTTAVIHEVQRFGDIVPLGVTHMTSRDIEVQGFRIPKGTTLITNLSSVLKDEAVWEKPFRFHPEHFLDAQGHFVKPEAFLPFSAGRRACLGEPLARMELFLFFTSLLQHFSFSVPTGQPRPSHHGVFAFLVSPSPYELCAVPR

SMILES	IC50 [1] [nM]	Activity [2]	logD [3]	Papp [4] [×10⁻⁶ cm/s]	solubility [5] [µg/mL]	remaining at 0.5 h [6] [%]	inhibition at 10 µM [7] [%]	inhibition at 10 µM [8] [%]	inhibition at 10 µM [9] [%]	AUC(0-inf) [10] [µM·h]	bioavailability [11] [%]	C0 [12] [nM]	half-life [13] [h]	Vd [14] [L/kg]	CL [15] [mL/min/kg]
CNc1cc(C)nc(Nc2ccc(OC)c(C3=CCNCCC3)c2)n1	32.3	Active	0.5	1.4	680 (≈ 2000 µM)	24	0	3	0	3.15	40	400	7	24.6	62.9
CNc1cc(C)nc(Nc2ccc(OC)c(OCCCN3CCCC3)c2)n1	185	Active	0.8	3.1	740 (≈ 1990 µM)	8	5	8	8	2.86	17	260	4	8.3	27.4
